According to publication PMC11079024, “Identification of a family of species-selective complex I inhibitors as potential anthelmintics” (Nature Communications, 2024):
Values joined by “and” are separate entries in the source; they are usually repeats but may differ in a detail not shown here. Equal values may be shown once. Read-outs that look alike come from different tables or passages of the source.

What was measured:
H. polygyrus = assay: In vivo efficacy study in H. polygyrus mouse model; design: species or system NMRI mice infected with H. polygyrus; details: for # Mice cured/ # Mice investigated: assessed 1 week after dosing; for Median # of living H. polygyrus worms: median (MAD) of adults collected from intestine; for Live worms in intestine (individual mouse) / Live worms in intestine, Median (+/- MAD): worm burden one week after dose; for Live worms in intestine (individual mouse): Mouse 1-4, 200 mg/kg; for Live worms in intestine, Median (+/- MAD): three to four mice
Protocol: For in vivo testing, female 3-week old NMRI mice were purchased from Charles River, Germany. The mice were kept in individually ventilated cages (IVC) under environmentally controlled conditions (temperature: 22 °C ± 2 °C; relative humidity: 55% ± 15%; artificial lighting with a circadian cycle of 12 h of light) and had free access to water (municipal tap water supply) and rodent food. Rodents were allowed to acclimatize to the new environment for 1 week before infection. Upon 2 days of arrival, dexamethasone (0.25 mg/L) (Sigma-Aldrich, Switzerland) was added to the normal drinking water for immunosuppression to enable parasite establishment. After 1 week, mice were orally infected with 100 H. polygyrus third larval stage (L3) in 150 µL water.
Four benzimidazole derivatives were tested for in vivo efficacy. The administration of dexamethasone was stopped after 12 days post-infection and 2 days later, the selected four benzimidazole derivatives were administered by oral gavage at a single dose of 200 mg/kg to groups of each four mice. Four mice were left untreated and served as a control group. The derivatives were prepared as a Tween80 (Sigma-Aldrich, Switzerland)/ethanol (Merck, Germany) mixture dissolved in tap water (7:3:90, v/v). After 6–7 days post-dosing, the mice were euthanized with CO2 and dissected. Adult worms were removed from the intestine and counted. The worm burden reduction was calculated by comparing the number of worms found in the control animals versus the treated animals.

C. briggsae complex I = C. briggsae complex I (Caenorhabditis briggsae, UniProt A8X476+A8XFG2+Q8HEC4); assay: In vitro complex I activity assay, C. briggsae mitochondria; type: biochemical
Protocol: Mitochondria were isolated from the following free-living nematode strains: C. elegans—N2, CB3474, ECA882, ECA917, ECA1075, ECA1080; C. briggsae—AF16; P. pacificus—PS312; and P. hermaphrodita—B178. With the exception of the P. hermaphrodita strain B178, adult worms of each strain were grown in bulk through liquid culture to obtain mitochondria in sufficient quantities. Due to poor growth in liquid media, mixed stage populations of P. hermaphrodita were washed off and collected from NGM plates seeded with OP50. The isolation of mitochondria from all free-living nematode strains followed the protocol previously outlined in Burns et al.[24]. In brief, a 1 L saturated culture of E. coli HB101 was concentrated 20-fold in 50 mL complete S-medium. ~500,000 L1 worms synchronized from an embryo preparation performed the day prior were added to the S-media/HB101 suspension and grown to adulthood over the course of 3.5 days at 20 °C with shaking at 165 rpm. Following growth, worms were collected in 10 ×15 mL conical tubes and washed 7 times in M9 buffer. Worm suspensions were then combined into a single 15 mL conical tube and diluted to a final volume of 15 mL with M9 buffer. 1 mL aliquots of worm suspension were then distributed to 15 × 1.5 mL screw-cap microcentrifuge tubes and were pelleted at 500 g for 1 min. Excess M9 was aspirated without disturbing the worm pellet. 600 μL ice-cold isolate buffer A (250 mM sucrose, 10 mM Tris (pH 7.5), 1 mM EDTA, 1 mM PMSF (freshly prepared)) and 300 μL cold glass beads were then added to each tube. Tubes were incubated on ice for 10 min, and the worms were then lysed by bead beating (6 x 30 s, with 1 min cooling intervals). Tubes containing worm lysate were centrifuged at 1,000 g for 10 min at 4 °C and the supernatant was transferred to 15 new microcentrifuge tubes on ice. The tubes were centrifuged a second time at 1,000 g for 10 min at 4 °C and the supernatant was once again transferred to 15 new microcentrifuge tubes on ice. These tubes were then centrifuged at 16,000 g for 10 min at 4 °C. The resulting mitochondrial pellet was washed twice by re-suspension in 300 μL of ice-cold isolate buffer B (250 mM sucrose, 10 mM Tris (pH 7.5), 1 mM EDTA). Following the final wash, isolation buffer was aspirated from each tube and the pellets were flash-frozen in ethanol/dry ice and stored at −80 °C until needed.
The enzymatic activities of individual ETC complexes (I-IV) were assessed spectrophotometrically in isolated mitochondria using a Varioskan LUX Multimode plate reader (ThermoFisher Scientific). Mitochondrial pellets previously isolated were thawed on ice and resuspended in ice-cold isolation buffer (250 mM sucrose, 10 mM Tris (pH 7.5), 1 mM EDTA). The BCA assay (Walker, 1994) was used to quantify the protein concentration of mitochondria suspensions; solutions were diluted to a concentration of 0.2 mg/mL for use in all assays. For the complex I assay, mitochondria pellets were freeze-thawed on ice three times to increase enzyme accessibility. […] 20 μL mitochondria suspension was then added/mixed with a pipette to initiate the reaction. Immediately following the addition of mitochondria, absorbance was measured (complex I and II: 600 nm; complex III and IV: 550 nm) in 30 s intervals over 15 min. Enzymatic activity was determined in each reaction by plotting absorbance versus time and calculating the slope of the curve during the initial linear phase of the reaction. […] Percent activity of each complex was calculated by dividing the enzyme-specific activity of each well by the enzyme-specific activity of the corresponding solvent controls.
Chemical solutions were prepared in complex I assay buffer composed of 25 mM KPi buffer (pH 7.5), 3 mg/mL bovine serum albumin (BSA), 80 μM NADH, 60 μM decylubiquinone, 160 μM DCIP, 2 μM antimycin A and 2 mM KCN.
For preliminary screens of hit compounds, compounds were screened at 100 μM; data are the average of at least three biological replicates.

C. elegans = C. elegans chemical screens of RIKEN NPD libraries at 50 μM (hit identification in KCN survival and development/viability assays); type: cell-based, Caenorhabditis elegans; details: screened at 50 μM in triplicate, KCN = KCN survival assay, Dev. & Viability = development/viability assay
[1] = single oral dose 200 mg/kg, vs untreated control mice
[2] = single oral dose of 200 mg/kg, median worm counts versus control mice

C. briggsae complex I, sequence (A8X476 31-482): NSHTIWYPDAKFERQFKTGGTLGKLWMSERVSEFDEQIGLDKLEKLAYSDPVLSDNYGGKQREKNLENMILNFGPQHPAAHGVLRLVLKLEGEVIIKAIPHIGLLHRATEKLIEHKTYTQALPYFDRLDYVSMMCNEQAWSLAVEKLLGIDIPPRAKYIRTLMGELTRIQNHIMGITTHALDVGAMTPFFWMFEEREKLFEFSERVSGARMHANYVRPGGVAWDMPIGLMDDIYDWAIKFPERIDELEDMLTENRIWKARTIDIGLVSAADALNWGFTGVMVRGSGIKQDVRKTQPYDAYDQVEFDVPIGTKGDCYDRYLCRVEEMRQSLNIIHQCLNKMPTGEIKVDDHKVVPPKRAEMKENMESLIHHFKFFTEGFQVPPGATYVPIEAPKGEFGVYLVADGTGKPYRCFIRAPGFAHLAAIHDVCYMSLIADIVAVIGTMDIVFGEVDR
C. briggsae complex I, sequence (A8XFG2 17-199): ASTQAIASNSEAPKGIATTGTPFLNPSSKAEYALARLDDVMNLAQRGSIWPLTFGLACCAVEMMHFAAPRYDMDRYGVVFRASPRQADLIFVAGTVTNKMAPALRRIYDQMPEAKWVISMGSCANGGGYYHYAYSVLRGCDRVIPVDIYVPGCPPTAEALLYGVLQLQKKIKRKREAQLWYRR
C. briggsae complex I, sequence (Q8HEC4 whole entry): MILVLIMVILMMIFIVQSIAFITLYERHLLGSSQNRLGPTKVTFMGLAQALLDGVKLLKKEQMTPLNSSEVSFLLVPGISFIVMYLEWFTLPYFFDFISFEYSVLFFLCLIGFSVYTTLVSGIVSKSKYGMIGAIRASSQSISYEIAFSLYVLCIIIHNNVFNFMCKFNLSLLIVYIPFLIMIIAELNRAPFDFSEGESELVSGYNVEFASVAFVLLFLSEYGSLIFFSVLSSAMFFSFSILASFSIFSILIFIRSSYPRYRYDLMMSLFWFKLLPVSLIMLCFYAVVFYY

## Clc1ccc(SCCCCn2cnc3ccccc32)cc1 [Compound 7925515]
H. polygyrus; single oral dose 200 mg/kg
  # Mice cured/ # Mice investigated: 0/4
  Median # of living H. polygyrus worms: 100.0 (8.0)
H. polygyrus; [1]
  % Worm burden reduction: 19.4%
H. polygyrus; [2]
  % Worm burden reduction: 19.3548%
H. polygyrus; single oral dose of 200 mg/kg
  Live worms in intestine (individual mouse): 113 and 100 and 92
  Live worms in intestine, Median (+/- MAD): 100 (8.0)

## Cc1nc2ccccc2n1Cc1ccc(Cl)cc1 [STK697993]
C. briggsae complex I; C. briggsae mitochondria, 0.0001 µM, Mean, read-out: in vitro complex I activity relative to solvent control
  remaining activity at 0.0001 µM: 84.5%
C. briggsae complex I; C. briggsae mitochondria, 0.0001 µM, single replicate
  in vitro complex I activity relative to solvent control: 91.655% and 73.328%
C. briggsae complex I; C. briggsae mitochondria, 0.0001 µM, single replicate, read-out: in vitro complex I activity relative to solvent control
  remaining activity at 0.0001 µM: 88.5%
C. briggsae complex I; C. briggsae mitochondria, 0.0005 µM, Mean, read-out: in vitro complex I activity relative to solvent control
  remaining activity at 0.0005 µM: 92.6%
C. briggsae complex I; C. briggsae mitochondria, 0.0005 µM, single replicate
  in vitro complex I activity relative to solvent control: 92.151% and 96.046%
C. briggsae complex I; C. briggsae mitochondria, 0.0005 µM, single replicate, read-out: in vitro complex I activity relative to solvent control
  remaining activity at 0.0005 µM: 89.6%
C. briggsae complex I; C. briggsae mitochondria, 0.001 µM, Mean, read-out: in vitro complex I activity relative to solvent control
  remaining activity at 0.001 µM: 98.3%
C. briggsae complex I; C. briggsae mitochondria, 0.001 µM, single replicate
  in vitro complex I activity relative to solvent control: 98.678% and 90.340%
C. briggsae complex I; C. briggsae mitochondria, 0.001 µM, single replicate, read-out: in vitro complex I activity relative to solvent control
  remaining activity at 0.001 µM: 106%
C. briggsae complex I; C. briggsae mitochondria, 0.0025 µM, Mean, read-out: in vitro complex I activity relative to solvent control
  remaining activity at 0.0025 µM: 104%
C. briggsae complex I; C. briggsae mitochondria, 0.0025 µM, single replicate
  in vitro complex I activity relative to solvent control: 101.880% and 103.212%
C. briggsae complex I; C. briggsae mitochondria, 0.0025 µM, single replicate, read-out: in vitro complex I activity relative to solvent control
  remaining activity at 0.0025 µM: 106%
C. briggsae complex I; C. briggsae mitochondria, 0.005 µM, Mean, read-out: in vitro complex I activity relative to solvent control
  remaining activity at 0.005 µM: 99.2%
C. briggsae complex I; C. briggsae mitochondria, 0.005 µM, single replicate
  in vitro complex I activity relative to solvent control: 95.872% and 91.749%
C. briggsae complex I; C. briggsae mitochondria, 0.005 µM, single replicate, read-out: in vitro complex I activity relative to solvent control
  remaining activity at 0.005 µM: 110%
C. briggsae complex I; C. briggsae mitochondria, 0.013 µM, Mean, read-out: in vitro complex I activity relative to solvent control
  remaining activity at 0.013 µM: 91%
C. briggsae complex I; C. briggsae mitochondria, 0.013 µM, single replicate
  in vitro complex I activity relative to solvent control: 83.705% and 87.377%
C. briggsae complex I; C. briggsae mitochondria, 0.013 µM, single replicate, read-out: in vitro complex I activity relative to solvent control
  remaining activity at 0.013 µM: 102%
C. briggsae complex I; C. briggsae mitochondria, 0.025 µM, Mean, read-out: in vitro complex I activity relative to solvent control
  remaining activity at 0.025 µM: 82.5%
C. briggsae complex I; C. briggsae mitochondria, 0.025 µM, single replicate
  in vitro complex I activity relative to solvent control: 95.007% and 79.112% and 73.336%
C. briggsae complex I; C. briggsae mitochondria, 0.063 µM, Mean, read-out: in vitro complex I activity relative to solvent control
  remaining activity at 0.063 µM: 54.5%
C. briggsae complex I; C. briggsae mitochondria, 0.063 µM, single replicate
  in vitro complex I activity relative to solvent control: 60.174% and 66.771% and 36.409%
C. briggsae complex I; C. briggsae mitochondria, 0.125 µM, Mean, read-out: in vitro complex I activity relative to solvent control
  remaining activity at 0.125 µM: 33.3%
C. briggsae complex I; C. briggsae mitochondria, 0.125 µM, single replicate
  in vitro complex I activity relative to solvent control: 36.143% and 47.895% and 15.798%
C. briggsae complex I; C. briggsae mitochondria, 0.313 µM, Mean, read-out: in vitro complex I activity relative to solvent control
  remaining activity at 0.313 µM: 12.2%
C. briggsae complex I; C. briggsae mitochondria, 0.313 µM, single replicate
  in vitro complex I activity relative to solvent control: 16.180% and 20.382% and 0.000%
C. briggsae complex I; C. briggsae mitochondria, 0.625 µM, Mean, read-out: in vitro complex I activity relative to solvent control
  remaining activity at 0.625 µM: 5.29%
C. briggsae complex I; C. briggsae mitochondria, 0.625 µM, single replicate
  in vitro complex I activity relative to solvent control: 0.000% and 15.885%
C. briggsae complex I; C. briggsae mitochondria, 1.5 µM, Mean, read-out: in vitro complex I activity relative to solvent control
  remaining activity at 1.5 µM: 3.62%
C. briggsae complex I; C. briggsae mitochondria, 1.5 µM, single replicate
  in vitro complex I activity relative to solvent control: 0.000% and 10.874%
C. briggsae complex I; C. briggsae mitochondria, 3 µM, Mean, read-out: in vitro complex I activity relative to solvent control
  remaining activity at 3 µM: 5.17%
C. briggsae complex I; C. briggsae mitochondria, 3 µM, single replicate
  in vitro complex I activity relative to solvent control: 0.000% and 15.522%
C. briggsae complex I; C. briggsae mitochondria, 15 µM, Mean, read-out: in vitro complex I activity relative to solvent control
  remaining activity at 15 µM: 7.49%
C. briggsae complex I; C. briggsae mitochondria, 15 µM, single replicate
  in vitro complex I activity relative to solvent control: 0.019% and 20.437% and 1.999%
C. briggsae complex I; C. briggsae mitochondria, 37.5 µM, Mean, read-out: in vitro complex I activity relative to solvent control
  remaining activity at 37.5 µM: 5.41%
C. briggsae complex I; C. briggsae mitochondria, 37.5 µM, single replicate
  in vitro complex I activity relative to solvent control: 0.000% and 16.226%
C. briggsae complex I; C. briggsae mitochondria, 75 µM, Mean, read-out: in vitro complex I activity relative to solvent control
  remaining activity at 75 µM: 4.07%
C. briggsae complex I; C. briggsae mitochondria, 75 µM, single replicate
  in vitro complex I activity relative to solvent control: 3.330% and 6.641% and 2.225%
C. briggsae complex I; purified mitochondria
  IC50: 73.7 nM

## COc1cc2c(cc1OC)C(c1ccc(-c3ccc(Cl)c(Cl)c3)o1)=NCC2 [NPD3577]
C. elegans; […]
  Hit Type: KCN

## CCn1c(C(C)c2ccc(CC(C)C)cc2)nc2ccccc21 (stereo not shown) [STK951902]
H. polygyrus; single oral dose 200 mg/kg
  # Mice cured/ # Mice investigated: 0/4
  Median # of living H. polygyrus worms: 73.0 (1.5)
H. polygyrus; [1]
  % Worm burden reduction: 41.1%
H. polygyrus; [2]
  % Worm burden reduction: 41.1290%
H. polygyrus; single oral dose of 200 mg/kg
  Live worms in intestine (individual mouse): 73 and 52 and 76
  Live worms in intestine, Median (+/- MAD): 73 (1.5)

## Cc1cc(O)c2c(c1)O[C@@]1(C)CC[C@H]3C(C)(C)CCC[C@]34CO[C@@H]2[C@H]41 [Siccanin]
C. elegans; hit = modified z-score < −3
  Hit Type: KCN

## COc1cc2c(cc1OC)C(/C=C/c1ccc(N(C)C)cc1)=NCC2 [NPD6303]
C. elegans; […]
  Hit Type: KCN

## COc1cc2c(cc1OC)C(C(C)c1ccc(CC(C)C)cc1)=NCC2 (stereo not shown) [NPD10504]
C. elegans; […]
  Hit Type: KCN
